Results: ChEMBL document CHEMBL1201862, “PubChem BioAssay data set” (2004)
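Following 48 hours of exposure in 96-well plates, responses at five concentrations were used to interpolate endpoints linearly. GI50 = concentration required for 50% inhibition of growth.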 Calls of active or inactive are those of the source. No stated cut-off is given here; in the data, active = GI50 up to about 1.1 µM and inactive = higher.

Assays:
Assay in all cases: NCI anticancer screen, dose series, 48 h
[1] = system: A549
[2] = system: BT-549
[3] = system: CAKI-1
[4] = system: HCT-116
[5] = system: HCT-15
[6] = system: HL-60
[7] = system: HT-29
[8] = system: Hs-578T
[9] = system: KM12
[10] = system: M14
[11] = system: MDA-MB-435
[12] = system: MDA-N
[13] = system: NCI-H460
[14] = system: NCI-H522
[15] = system: NCI/ADR-RES
[16] = system: SNB-19
[17] = system: TK-10
[18] = system: OVCAR-3
[19] = system: SK-OV-3

CN1CC[C@@]2(c3cccc(O)c3)CC(=O)/C(=C/c3ccccc3)[C@H]1C2.[O-][Cl+3]([O-])([O-])O
GI50 [1]: 15 µM (inactive) | GI50 [2]: 11.8 µM (inactive) | GI50 [3]: 1.64 µM (inactive) | GI50 [4]: 3.37 µM (inactive) | GI50 [5]: 5.89 µM | GI50 [6]: 2.25 µM (inactive) | GI50 [7]: 3.18 µM (inactive) | GI50 [8]: 3.35 µM (inactive) | GI50 [9]: 3.81 µM (inactive) | GI50 [10]: 10.5 µM (inactive) | GI50 [11]: 3.05 µM (inactive) | GI50 [12]: 4.88 µM (inactive) | GI50 [13]: 3.52 µM (inactive) | GI50 [14]: 3.93 µM (inactive) | GI50 [15]: 3.85 µM (inactive) | GI50 [16]: 7.31 µM (inactive) | GI50 [17]: 15.7 µM (inactive)

O=c1[nH]c(NCc2ccncc2)nc2[nH]cnc12
GI50 [1]: > 100 µM (inactive) | GI50 [2]: > 100 µM (inactive) | GI50 [3]: > 100 µM (inactive) | GI50 [4]: > 100 µM (inactive) | GI50 [5]: > 100 µM | GI50 [7]: > 100 µM (inactive) | GI50 [8]: > 100 µM (inactive) | GI50 [9]: > 100 µM (inactive) | GI50 [10]: > 100 µM (inactive) | GI50 [11]: > 100 µM (inactive) | GI50 [12]: > 100 µM (inactive) | GI50 [13]: > 100 µM (inactive) | GI50 [14]: > 100 µM (inactive) | GI50 [15]: > 100 µM (inactive) | GI50 [18]: > 100 µM (inactive) | GI50 [19]: > 100 µM (inactive) | GI50 [16]: > 100 µM (inactive) | GI50 [17]: > 100 µM (inactive)

N#CC(c1ccccc1)N(CCOCCOCCN(C(=O)c1ccccc1)C(C#N)c1ccccc1)C(=O)c1ccccc1 (stereo unspecified)
GI50 [1]: 98.9 µM (inactive) | GI50 [2]: > 100 µM (inactive) | GI50 [3]: > 100 µM (inactive) | GI50 [4]: 46.6 µM (inactive) | GI50 [5]: > 100 µM | GI50 [6]: 36.2 µM (inactive) | GI50 [7]: > 100 µM (inactive) | GI50 [8]: > 100 µM (inactive) | GI50 [9]: > 100 µM (inactive) | GI50 [10]: > 100 µM (inactive) | GI50 [11]: 83 µM (inactive) | GI50 [12]: > 100 µM (inactive) | GI50 [13]: 81.3 µM (inactive) | GI50 [15]: 28.2 µM (inactive) | GI50 [18]: 66.8 µM (inactive) | GI50 [19]: > 100 µM (inactive) | GI50 [16]: > 100 µM (inactive) | GI50 [17]: 78.2 µM (inactive)

CN(C)c1nc2n(CCO)ccnc-2c(=O)n1
GI50 [1]: > 100 µM (inactive) | GI50 [2]: > 100 µM (inactive) | GI50 [3]: > 100 µM (inactive) | GI50 [4]: > 100 µM (inactive) | GI50 [5]: > 100 µM | GI50 [7]: > 100 µM (inactive) | GI50 [8]: > 100 µM (inactive) | GI50 [9]: > 100 µM (inactive) | GI50 [10]: > 100 µM (inactive) | GI50 [11]: > 100 µM (inactive) | GI50 [12]: > 100 µM (inactive) | GI50 [13]: > 100 µM (inactive) | GI50 [14]: > 100 µM (inactive) | GI50 [15]: > 100 µM (inactive) | GI50 [18]: > 100 µM (inactive) | GI50 [19]: > 100 µM (inactive) | GI50 [16]: > 100 µM (inactive) | GI50 [17]: > 100 µM (inactive)

C=CCOC1OC(CS(=O)(=O)O)C(OC(C)=O)C(OC(C)=O)C1OC(C)=O (stereo unspecified)
GI50 [2]: > 100 µM (inactive) | GI50 [3]: > 100 µM (inactive) | GI50 [4]: > 100 µM (inactive) | GI50 [5]: > 100 µM | GI50 [6]: > 100 µM (inactive) | GI50 [7]: > 100 µM (inactive) | GI50 [8]: > 100 µM (inactive) | GI50 [9]: > 100 µM (inactive) | GI50 [10]: > 100 µM (inactive) | GI50 [11]: > 100 µM (inactive) | GI50 [12]: > 100 µM (inactive) | GI50 [13]: > 100 µM (inactive) | GI50 [15]: > 100 µM (inactive) | GI50 [18]: > 100 µM (inactive) | GI50 [19]: > 100 µM (inactive) | GI50 [16]: > 100 µM (inactive) | GI50 [17]: > 100 µM (inactive)

O=c1oc2cc(O)ccc2cc1-c1nc2ccccc2o1
GI50 [1]: 29.5 µM (inactive) | GI50 [2]: 15.5 µM (inactive) | GI50 [3]: 44 µM (inactive) | GI50 [4]: 41.6 µM (inactive) | GI50 [5]: 34.4 µM | GI50 [6]: 23.8 µM (inactive) | GI50 [7]: 33.7 µM (inactive) | GI50 [8]: 33.4 µM (inactive) | GI50 [9]: 25.8 µM (inactive) | GI50 [10]: 36.3 µM (inactive) | GI50 [11]: 28.2 µM (inactive) | GI50 [12]: 40.8 µM (inactive) | GI50 [13]: 30.5 µM (inactive) | GI50 [14]: 17.1 µM (inactive) | GI50 [15]: 36.4 µM (inactive) | GI50 [18]: 19.1 µM (inactive) | GI50 [16]: 29.1 µM (inactive) | GI50 [17]: 37 µM (inactive)

CCc1c(Cc2cc(C)cc(C)c2)n2c(nc1=O)SCC2CBr (stereo unspecified)
GI50 [1]: > 50 µM (inactive) | GI50 [2]: > 50 µM (inactive) | GI50 [3]: > 50 µM (inactive) | GI50 [4]: > 50 µM (inactive) | GI50 [5]: > 50 µM | GI50 [6]: > 50 µM (inactive) | GI50 [7]: > 50 µM (inactive) | GI50 [8]: > 50 µM (inactive) | GI50 [9]: > 50 µM (inactive) | GI50 [10]: > 50 µM (inactive) | GI50 [11]: > 50 µM (inactive) | GI50 [12]: > 50 µM (inactive) | GI50 [13]: > 50 µM (inactive) | GI50 [14]: 27.4 µM (inactive) | GI50 [15]: > 50 µM (inactive) | GI50 [16]: 23.1 µM (inactive) | GI50 [17]: 34 µM (inactive)

O=c1c(C(c2cccc(C(c3c(O)oc4ccccc4c3=O)c3c(O)oc4ccccc4c3=O)c2)c2c(O)oc3ccccc3c2=O)c(O)oc2ccccc12
GI50 [1]: 60.3 µM (inactive) | GI50 [2]: 27.9 µM (inactive) | GI50 [3]: 16.9 µM (inactive) | GI50 [4]: 25.1 µM (inactive) | GI50 [5]: 63.8 µM | GI50 [6]: 21.7 µM (inactive) | GI50 [7]: 36.9 µM (inactive) | GI50 [8]: 25.5 µM (inactive) | GI50 [9]: 30.5 µM (inactive) | GI50 [10]: > 100 µM (inactive) | GI50 [11]: 86.9 µM (inactive) | GI50 [12]: 66.4 µM (inactive) | GI50 [13]: 75.2 µM (inactive) | GI50 [14]: 14.5 µM (inactive) | GI50 [15]: > 100 µM (inactive) | GI50 [18]: 35.3 µM (inactive) | GI50 [19]: 18.2 µM (inactive) | GI50 [17]: > 100 µM (inactive)
